Experiment [1] has as its target cloned human P2Y1 receptors (Homo sapiens (Human), UniProt P47900). Put plainly: Binding Assay A: membrane binding assay, [33P] 2MeS-ADP. An excerpt: A membrane binding assay was used to identify inhibitors of [^33P] […] The cDNA clone for human P2Y1 was obtained from Incyte Pharmaceuticals and its sequence confirmed by established techniques (for a compendium of techniques used see Ausubel, F. et al. Current Protocols in Molecular Biology, John Wiley and Sons, NY, N.Y. (1995)). The essential coding sequences were subcloned into pCDNA 3.1 (Invitrogen) to produce a P2Y1 expression construct. This construct was then transfected into the human embryonic kidney cell line HEK-293 and stable transfectants selected in GENETICIN® (G418 sulfate; Life Technologies). […] Membranes were prepared by growing HEK293 #49 in 150 mm dishes in DMEM/10% FBS in the presence of 1 mg/ml G418 until cells were 80-90% confluent. Plates were then washed with cold (4° C.) D-PBS twice and cells harvested by scraping into 10 mL D-PBS. Cells were pelleted by centrifugation (1,000 g, 10 min, 4° C.) and the resulting pellet resuspended in Lysis Buffer (10 mM Tris (7.4), 5 mM MgCl2 containing Complete protease inhibitor cocktail (Roche Cat #1873580) as recommended by the manufacturer). The suspension was then homogenized in a Dounce homogenizer (10-15 strokes; B pestle, on ice) and the homogenate spun at 1,000 g, 4° C., 5 min to pellet large debris. The supernatant was centrifuged at 150,000 g, 4° C., for 1 hour and the resulting membrane pellet resuspended in 0.5-1 mL of Buffer B (15 mM HEPES (7.4), 145 mM NaCl, 0.1 mM MgCl2, 5 mM EDTA, 5 mM KCl) and stored at −70° C. until used.
Binding reactions were performed in WGA FLASHPLATE®s (PerkinElmer Life Sciences, Cat # SMP105A) in a volume of 200 μL containing ˜45 fmol of P2Y1 receptor (5 μg of total protein), 0.5 nM [^33P] […] Reactions were allowed to proceed to completion at room temperature for 1 hour and then the aqueous solution aspirated. Plates were sealed and the residual [^33P] bound to the plate determined by scintillation counting.

In experiment [2] the test system is human platelet rich plasma (PRP). Put plainly: ADP induced platelet aggregation assay.
Setting [3] is: values marked *, WGA FlashPlate, [33P] 2MeS-ADP displacement, read-out: P2Y1 Ki (nM) *Using binding assay A.
The mark [4] stands for this setting: Homo sapiens, Platelet, read-out: PA IC50 (μM) @ 10 μM ADP, platelet aggregation induced by 10 μM ADP, human PRP.

For 12 compounds, Ki and IC50 results are on record in US9428504B2, “7-hydroxy-spiropipiperidine indolinyl antagonists of P2Y1 receptor” (BRISTOL-MYERS SQUIBB COMPANY, priority 2012, dated 2016).

Counter-ions that a name gives are not always drawn. Like-named read-outs stand apart in the source and are kept apart here.

Sequence of cloned human P2Y1 receptors (P47900 whole entry): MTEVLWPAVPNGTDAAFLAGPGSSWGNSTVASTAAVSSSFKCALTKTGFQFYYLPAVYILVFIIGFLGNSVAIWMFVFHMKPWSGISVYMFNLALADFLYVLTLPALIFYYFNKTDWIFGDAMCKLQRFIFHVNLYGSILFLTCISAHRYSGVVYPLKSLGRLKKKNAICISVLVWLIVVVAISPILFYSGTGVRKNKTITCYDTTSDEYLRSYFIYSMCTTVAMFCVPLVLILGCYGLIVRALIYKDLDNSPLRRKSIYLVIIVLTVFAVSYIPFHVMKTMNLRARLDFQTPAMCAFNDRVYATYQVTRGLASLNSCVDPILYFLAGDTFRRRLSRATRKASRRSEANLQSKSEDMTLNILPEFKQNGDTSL

As for `CC(C)N1CCC2(CC1)CN(c1ccccc1NC(=O)Nc1ccc(OC(F)(F)F)cc1)c1ccccc12` [Comparator 1, reference compound], the Ki in experiment [1] (setting [3]) stood at 300 nM. Moreover, the IC50 in experiment [2] (setting [4]) stood at 29.2 µM. For `CC(C)(C)CN1CCC2(CC1)CN(c1ncccc1NC(=O)Nc1ccc(C(C)(C)C)cc1)c1c(O)ccc(C(F)(F)F)c12` [Example 13, 1-(4-tert-Butylphenyl)-3-(2-(7-hydroxy-1′-neopentyl-4-(trifluoromethyl)spiro[indoline-3,4′-piperidine]-1-yl)pyridin-3-yl)urea] the same measures were 3.3 nM and 0.5 µM.

In the case of `CC(C)N1CCC2(CC1)CN(c1ncccc1NC(=O)Nc1ccc(OC(F)(F)F)cc1)c1ccccc12` [Comparator 3, reference compound], the Ki in experiment [1] (setting [3]) was determined as 5300 nM. As to `CC(C)(C)CN1CCC2(CC1)CN(c1ccccc1NC(=O)Nc1nc3ccc(Cl)cc3s1)c1c(O)ccc(F)c12` [Example 33, 1-(2-(7-Hydroxy-4-fluoro-1′-neopentylspiro[indoline-3,4′-piperidine]-1-yl)phenyl)-3-(6-chlorobenzo[d]thiazol-2-yl)urea], the Ki in experiment [1] (setting [3]) is 3.7 nM. Moreover, the IC50 in experiment [2] (setting [4]) was determined as 0.4 µM. For `CC(C)c1nsc(NC(=O)Nc2ccccc2N2CC3(CCN(CC(C)(C)C)CC3)c3c(F)ccc(O)c32)n1` [Example 35, 1-(2-(4-Fluoro-7-hydroxy-1′-neopentylspiro[indoline-3,4′-piperidine]-1-yl)phenyl)-3-(3-isopropyl-1,2,4-thiadiazol-5-yl)urea], in that order: 1.9 nM and 0.3 µM. For `Cc1ccc2nc(NC(=O)Nc3ccccc3N3CC4(CCN(CC(C)(C)C)CC4)c4c(F)ccc(O)c43)sc2c1` [Example 34, 1-(2-(7-Hydroxy-4-fluoro-1′-neopentylspiro[indoline-3,4′-piperidine]-1-yl)phenyl)-3-(6-methylbenzo[d]thiazol-2-yl)urea], in that order: 3.7 nM and 0.5 µM. With `CC(C)(C)CN1CCC2(CC1)CN(c1ccccc1NC(=O)Nc1ccc(OC(F)(F)F)cc1)c1c(O)cccc12` [Example 1, 1-(2-(7-Hydroxy-1′-neopentylspiro[indoline-3,4′-piperidine]-1-yl)phenyl)-3-(4-(trifluoromethoxy)phenyl)urea], the Ki in experiment [1] (setting [3]) amounted to 10.3 nM. Moreover, the IC50 in experiment [2] (setting [4]) turned out to be 1.7 µM. For `CC(C)c1nsc(NC(=O)Nc2ccccc2N2CC3(CCN(CC(C)(C)C)CC3)c3c(Cl)ccc(O)c32)n1` [Example 43, 1-(2-(4-Chloro-7-hydroxy-1′-neopentylspiro[indoline-3,4′-piperidine]-1-yl)phenyl)-3-(3-isopropyl-1,2,4-thiadiazol-5-yl)urea] the same measures were 4.4 nM and 0.3 µM.

In experiment [1], `CC(C)(C)CN1CCC2(CC1)CN(c1ccccc1NC(=O)Nc1nc3ccc(Cl)nc3s1)c1c(O)ccc(Cl)c12` [Example 167, 1-(2-(4-Chloro-7-hydroxy-1′-neopentylspiro[indoline-3,4′-piperidine]-1-yl)phenyl)-3-(5-chlorothiazolo[5,4-b]pyridin-2-yl)urea, methanesulfonic acid salt] returned a Ki of 3.3 nM. The IC50 in experiment [2] (read-out: PA IC50 (μM) @ 10 μM ADP, platelet aggregation induced by 10 μM ADP, human PRP) was 0.5 µM. For the compound `Cc1nsc(NC(=O)Nc2ccccc2N2CC3(CCN(CC(C)(C)C)CC3)c3c(Cl)ccc(O)c32)n1` [Example 42, 1-(2-(4-Chloro-7-hydroxy-1′-neopentylspiro[indoline-3,4′-piperidine]-1-yl)phenyl)-3-(3-methyl-1,2,4-thiadiazol-5-yl)urea], in experiment [1] (setting [3]), the Ki was found to be 3.3 nM. The IC50 in experiment [2] (setting [4]) was determined as 0.3 µM.

`CC(C)(C)CN1CCC2(CC1)CN(c1ccccc1NC(=O)Nc1nc3ccc(Cl)cc3s1)c1c(O)cccc12` [Example 75, 1-(6-Chlorobenzo[d]thiazol-2-yl)-3-(2-(7-hydroxy-1′-neopentylspiro [indoline-3,4′-piperidine]-1-yl)phenyl)urea]: the Ki in experiment [1] (setting [3]) was 7.5 nM. Further, the 50% inhibitory concentration (IC50) in experiment [2] (setting [4]) was determined as 0.4 µM. Regarding `CC(C)CN1CCC2(CC1)CN(c1ccccc1NC(=O)Nc1ccc(OC(F)(F)F)cc1)c1ccccc12` [Comparator 2, reference compound], the Ki in experiment [1] (setting [3]) came to 20.2 nM. In experiment [2] (setting [4]), the IC50 was determined as 8.8 µM.
